These results are taken from article PMC6315395, “New Lipophenol Antioxidants Reduce Oxidative Damage in Retina Pigment Epithelial Cells” (Antioxidants, 2018).

One data set concerns Abca4 −/− Rdh8 −/− mice. Details: method as in PMID 27992460. Particulars: treated orally for three months; cited from earlier work.
Data set [1] concerns porcine primary RPE cells. Details: method as in PMID 27992460. The conditions noted are these: at 20 µM; cited from earlier work.
For the next data set, the system named is RPE cells. Particulars: 100 µM; cited from earlier work.
Data set [2] has as its system Balb-c male mice photoreceptors. Also on record: method as in PMID 29541735. The conditions noted are these: cited from earlier work.
Data set [3] deals with ARPE-19 cells. The data set can be described thus: Protection against ROS production (DCFDA probe, H2O2 stress). It counts as cell-based, human. The conditions noted are these: for IC50: H2O2 600 µM for 4 h, DCFDA, mean ± SD, n ≥ 3, read-out: ROS production IC50 (concentration needed to inhibit 50% of the ROS induced by H2O2). The method, then: ROS activity was measured in ARPE-19 cells with dichlorofluorescein diacetate (DCFDA) reagent. DCFDA is deacetylated by cellular esterases to dichlorofluorescein (DCFH), which can then be oxidized by ROS into the fluorophore 2′,7′–dichlorofluorescein (DCF). ARPE-19 cells were plated into black, optically clear bottom 96-well plates (4 × 10^4 cells/well) and cultured for 24 h to reach confluence before the drug treatment. The cell cultures were incubated with 2 µM of DCFDA for 45 min in DMEM/F12 medium without phenol red + 1% FBS. The cells were rinsed and incubated with the medium containing lipophenols at different concentrations (0–80 µM) for 1 h. Then, H2O2 was added to a final concentration of 600 µM for 4 h, followed by the measurement of DCF production by fluorescence spectroscopy with excitation wavelength at 485 nm and emission wavelength at 535 nm. […] Control cells were incubated with DMSO (0.2%) ± DCFDA ± H2O2. The percentage of ROS produced was calculated as [(fluorescence of sample)/(fluorescence of control)] × 100%. The results are expressed in percentage of ROS produced normalized with control conditions in the absence of lipophenol and presence of stressor. When a dose-dependent inhibition was observed, IC50 was calculated.

Data set [4] can be described thus: Cytotoxicity of lipophenols (MTT cell viability, 24 h). It counts as cell-based, human. The conditions noted are these: human, ARPE-19 cells; for CC50 at 24 h: serum free medium, 0–160 µM, MTT, mean ± SD, n ≥ 3, read-out: ARPE-19 CC50 (concentration of lipophenol killing 50% of ARPE-19 cells). The procedure: (§1) Cell viability was determined by MTT colorimetric assay. The cells were incubated for 2 h with MTT reagent (0.5 mg/mL). During this incubation time, dehydrogenases of the living cells reduce the MTT to insoluble purple formazan. The absorbance at 570 nm and 655 nm of individual wells of the cell was measured using a microplate reader (BioRad 550, USA). […] The percentage of the viable cells was calculated as [(OD570 sample − OD655 sample)/(OD570 control − OD655 control)] × 100%.
(§2) ARPE-19 cells were plated into 96-well plates (4 × 10^4 cells/well) and cultured for 24 h to reach confluence before lipophenol treatment. The cell cultures were treated with serum free medium containing the lipophenols at different concentrations (0–160 µM) for 24 h. Control cells were incubated with DMSO (0.2%). The viability of the cells was determined using MTT colorimetric assay as described above and expressed in percentage of viable cells normalized with control conditions in the absence of lipophenols. When a dose-dependent toxicity was observed, CC50 was calculated.

For data set [5], the system named is ARPE-19 cells. Described as above. It is filed as cell-based, human. The conditions noted are these: for Toxicity in ARPE-19 cells (in words): tested 0–160 µM. The procedure: as §1, §2
The subject of data set [6] is ARPE-19 cells. The data set can be described thus: Protection against photo-oxidized A2E toxicity (MTT cell viability). Particulars: for IC50: 1 h pre-treatment, A2E 20 µM 6 h, blue light 30 min, mean ± SD, n ≥ 3, read-out: Protection against A2E toxicity IC50 (concentration needed to inhibit 50% of the toxicity induced by photo-oxidized A2E); for Decrease of the toxic effect of A2E: at 8 µM; for Cells protected from photo-oxidized A2E: at higher concentrations; for Maximum cell viability under photo-oxidized A2E: between 20 and 40 µM; for Potency against photo-oxidized A2E relative to natural quercetin: ratio of IC50. It is filed as cell-based, human. The procedure: as §1
ARPE-19 cells were plated into 96-well plates (4 × 10^4 cells/well) and cultured for 24 h to reach confluence before lipophenol treatment. The cell cultures were treated with serum free DMEM/F12 medium without phenol red containing lipophenols at different concentrations (0–80 µM) for 1 h. Then A2E was added to a final concentration of 20 µM for 6 h before rinsing with medium. Control cells were incubated with DMSO (0.2%) with or without A2E. The cells were exposed to intense blue light (4600 LUX) for 30 min to induce phototoxicity of A2E and incubated at 37 °C. The cell viability was determined 16–20 h later using a MTT colorimetric assay. Results are expressed in percentage of viable cells normalized with control conditions in the absence of lipophenols and stressor. When a dose-dependent efficiency was observed, IC50 was calculated.

For data set [7], the system named is ARPE-19 cells. Details: method as in PMID 27659166. The conditions noted are these: 60 µM, cells treated twice for 3 days before A2E stress; cited from earlier work.
Setting [8] is: Homo sapiens, ARPE-19, 1 h pre-incubation.

Bounds are passed on as bounds.

In the case of `CC(/C=C/C=C(C)/C=C/C(=O)O)=C\C=C\C=C(C)\C=C\C=C(C)\C=C\C(=O)O` (stereo in doubt) [Norbixin], the “Effect on A2E in mice (in words)” value with Abca4 −/− Rdh8 −/− mice is “able to reduce A2E”. For the same compound, in [1], the “Protection against A2E illuminated” value is given as 90–100%.
As for `O=c1c(O[C@@H]2OC[C@H](O)[C@H](O)[C@H]2O)c(-c2ccc(O)c(O)c2)oc2cc(O)cc(O)c12` [3-quercetin glycoside, Quercetin-3-O-α-L-arabinopyranoside], in the data set with RPE cells, the “Cell viability of RPE cells” value is reported as ~ 90%. The “Protection of photoreceptors against blue light damages (in words)” value in [2] was “protect”.
Consider `Oc1cc(O)c2c(c1)O[C@H](c1ccc(O)c(O)c1)[C@@H](O)C2` [(+)-catechin, reference compound], for which, in the data set on ARPE-19 cells [3] (setting [8]), the IC50 amounted to 5.93 ± 0.06 µM. Besides, the CC50 at 24 h in data set [4] is more than 160 µM. Moreover, the “Toxicity in ARPE-19 cells (in words)” value in the data set with ARPE-19 cells [5] (24 h) was “no apparent toxicity”.
On to `CCCCC/C=C\C/C=C\CCCCCCCC(=O)O[C@H]1Cc2c(O)cc(O)cc2O[C@@H]1c1ccc(O)c(O)c1` [Cat-3-LA (9), catechin-3-LA], for which the IC50 with ARPE-19 cells [3] (setting [8]) was determined as 10.6 ± 4.41 µM. The CC50 at 24 h in [4] worked out at 149 ± 6.61 µM. The “Concentration from which cytotoxicity on ARPE-19 starts” value with ARPE-19 cells [5] (24 h, MTT) is not below 80 µM.
In the case of `CCCCC/C=C\C/C=C\CCCCCCCC(=O)Oc1cc(O)cc(O)c1` [Phloro-LA (3), Phloroglucinol-LA], the IC50 in the data set on ARPE-19 cells [3] (setting [8]) is more than 80 µM. For the same compound, the “ROS scavenging potency relative to natural homologue (phloroglucinol)” value with ARPE-19 cells [3] (ratio of ROS IC50) is “nine times less potent”. Also, the CC50 at 24 h in [4] was more than 160 µM.
Turning to `Oc1cc(O)cc(O)c1` [Phloroglucinol, phloroglucinol, reference compound], the IC50 in the data set on ARPE-19 cells [3] (setting [8]) is 10.2 ± 3.44 µM. In data set [4], the CC50 at 24 h was more than 160 µM.
One may read the melting point as the temperature of the solid-liquid transition. As to `CC/C=C\C/C=C\C/C=C\CCCCCCCC(=O)Oc1c(-c2ccc(O)c(O)c2)oc2cc(O)cc(O)c2c1=O` [Quer-3-ALA (14), quercetin-3-ALA], the melting point amounted to 180 °C. Moreover, the IC50 in the data set on ARPE-19 cells [3] (1 h pre-incubation) worked out at 61.7 ± 7.43 µM. Besides, in the data set with ARPE-19 cells [3] (setting [8]), the IC50 was approximately 60 µM. Further, the CC50 at 24 h in [4] was determined as 69.4 ± 3.46 µM.
In the case of `CC/C=C\C/C=C\C/C=C\C/C=C\C/C=C\C/C=C\CCC(=O)Oc1c(-c2ccc(O)c(O)c2)oc2cc(O)cc(O)c2c1=O` [Quer-3-DHA (15)], the values for the IC50 with ARPE-19 cells [3] (1 h pre-incubation) and in the data set with ARPE-19 cells [3] (setting [8]) were 59.4 ± 18.8 µM and approximately 60 µM, respectively. In addition, in [4], the CC50 at 24 h is 134 ± 8.09 µM. Also, the “Toxicity in ARPE-19 cells (in words)” value with ARPE-19 cells [5] (24 h) was “slight toxicity”.
As to `CCCCC/C=C\C/C=C\CCCCCCCC(=O)Oc1c(-c2ccc(O)c(O)c2)oc2cc(O)cc(O)c2c1=O` [Quer-3-LA (13), quercetin-3-LA], the IC50 in the data set on ARPE-19 cells [3] (1 h pre-incubation) was determined as 52.2 ± 10.8 µM. Further, in the data set with ARPE-19 cells [3] (setting [8]), the IC50 was approximately 60 µM. The CC50 at 24 h in data set [4] was more than 160 µM. Further, the “Cell survival in cytotoxicity assay” value with ARPE-19 cells [5] (at 80 µM, Figure 8, 100% = non-treated control cells) stood at 150%. In the data set on ARPE-19 cells [5] (24 h), the “Toxicity in ARPE-19 cells (in words)” value is “no toxicity was observed up to 160 µM”. Besides, the IC50 with ARPE-19 cells [6] (Homo sapiens, ARPE-19) amounted to 8.24 µM. Moreover, in the data set on ARPE-19 cells [6], the “Decrease of the toxic effect of A2E” value was found to be 50%, the “Cells protected from photo-oxidized A2E” value was “up to 90%”, the “Maximum cell viability under photo-oxidized A2E” value is 88–89% and the “Potency against photo-oxidized A2E relative to natural quercetin” value is “three times more potent”.
Usually viability stands for a read-out of living cells in per cent, often relative to untreated cells. As for `CC/C=C\C/C=C\C/C=C\CCCCCCCC(=O)Oc1cc(O)c2c(=O)c(O)c(-c3ccc(O)c(O)c3)oc2c1` [Quer-7-ALA (18), quercetin-7-ALA], the melting point was found to be 235.8 °C. Further, the IC50 in the data set with ARPE-19 cells [3] (setting [8]) came to 9.44 ± 2.37 µM. Also, the “ROS scavenging potency relative to analogue 3-ALA” value with ARPE-19 cells [3] (ratio of ROS IC50) is on record as 6 times. For the same compound, the CC50 at 24 h in data set [4] was more than 160 µM. In [4] (up to 160 µM, Figure 8, 100% = non-treated control cells), the viability at 24 h is 128%. For the same compound, the IC50 with ARPE-19 cells [6] (Homo sapiens, ARPE-19) came to 8.45 µM. Moreover, in the data set on ARPE-19 cells [6], the “Decrease of the toxic effect of A2E” value was 50%, the “Cells protected from photo-oxidized A2E” value is given as “up to 90%”, the “Maximum cell viability under photo-oxidized A2E” value was 88–89% and the “Potency against photo-oxidized A2E relative to natural quercetin” value is given as “three times more potent”.
On to `O=c1c(O)c(-c2ccc(O)c(O)c2)oc2cc(O)cc(O)c12` [Quercetin, quercetin, reference compound], for which the IC50 in the data set on ARPE-19 cells [3] (setting [8]) was determined as 6.82 ± 0.73 µM; in the data set with ARPE-19 cells [6] (Homo sapiens, ARPE-19), 23.9 µM. Moreover, the CC50 at 24 h in data set [4] was found to be 111 ± 4.92 µM. For the same compound, the “Toxicity in ARPE-19 cells (in words)” value in the data set on ARPE-19 cells [5] (24 h) is given as “moderate toxicity”. In the data set with ARPE-19 cells [6] (Homo sapiens, ARPE-19, at 40 µM, read-out: Maximum cell viability under photo-oxidized A2E), the viability at 40 µM came out at 78%.
Take `CCCCC/C=C\C/C=C\CCCCCCCC(=O)Oc1ccc(/C=C/c2cc(O)cc(O)c2)cc1` [Resv-4′-LA (8), resveratrol-4′-LA]: the IC50 with ARPE-19 cells [3] (setting [8]) is more than 80 µM. In addition, the ROS scavenged with ARPE-19 cells [3] (at 80 µM, Figure S1) is listed as 40%. Besides, the CC50 at 24 h in data set [4] is more than 160 µM.
In the case of `Oc1ccc(C=Cc2cc(O)cc(O)c2)cc1` [Resveratrol, 3,4′,5-trihydroxystilbene, reference compound], the IC50 with ARPE-19 cells [3] (setting [8]) turned out to be 7.4 ± 0.51 µM. In data set [4], the CC50 at 24 h is more than 160 µM. For the same compound, in the data set on ARPE-19 cells [7], the “Protection against photo-oxidized A2E (in words, compared with 88–89% cell viability)” value was “Same level of protection”.
With `Oc1cc(O)cc(/C=C/c2ccc(O)c(O)c2)c1` [piceatannol], in the data set on ARPE-19 cells [7], the “Protection against photo-oxidized A2E (in words, compared with 88–89% cell viability)” value was “Same level of protection”.
